The NIST ThermoML archive (doi:10.1016/j.jct.2014.03.021)
Numbers after ± are expanded uncertainties.

Experiment: refractive index (Na D-line) (dimensionless); xn = mol fraction of the nth substance listed
Conditions: 101 kPa, Liquid, Standard Abbe refractometry

C[C@H](O)C(=O)[O-].C[N+](C)(C)CCO + O
refractive index (293.15 K, x1 = 0.0258): 1.36903 ± 0.00047
refractive index (293.15 K, x1 = 0.0511): 1.39091 ± 0.00048
refractive index (293.15 K, x1 = 0.074): 1.41121 ± 0.0004
refractive index (293.15 K, x1 = 0.1027): 1.41982 ± 0.00035
refractive index (293.15 K, x1 = 0.1965): 1.43901 ± 0.00039
refractive index (293.15 K, x1 = 0.2957): 1.45194 ± 0.00045
refractive index (293.15 K, x1 = 0.416): 1.46075 ± 0.00054
refractive index (293.15 K, x1 = 0.5184): 1.46916 ± 0.00062
refractive index (293.15 K, x1 = 0.5347): 1.46974 ± 0.00064
refractive index (293.15 K, x1 = 0.6044): 1.47013 ± 0.00069
refractive index (293.15 K, x1 = 0.6931): 1.47355 ± 0.00077
refractive index (293.15 K, x1 = 0.7801): 1.47251 ± 0.00085
refractive index (293.15 K, x1 = 0.8279): 1.47481 ± 0.00089
refractive index (293.15 K, x1 = 0.8996): 1.48014 ± 0.00096
refractive index (298.15 K, x1 = 0.0258): 1.36828 ± 0.00047
refractive index (298.15 K, x1 = 0.0511): 1.38998 ± 0.00047
refractive index (298.15 K, x1 = 0.074): 1.4101 ± 0.00039
refractive index (298.15 K, x1 = 0.1027): 1.41868 ± 0.00035
refractive index (298.15 K, x1 = 0.1965): 1.43773 ± 0.00039
refractive index (298.15 K, x1 = 0.2957): 1.45066 ± 0.00045
refractive index (298.15 K, x1 = 0.416): 1.4594 ± 0.00054
refractive index (298.15 K, x1 = 0.5184): 1.46786 ± 0.00062
refractive index (298.15 K, x1 = 0.5347): 1.46843 ± 0.00064
refractive index (298.15 K, x1 = 0.6044): 1.46887 ± 0.00069
refractive index (298.15 K, x1 = 0.6931): 1.4723 ± 0.00077
refractive index (298.15 K, x1 = 0.7801): 1.47121 ± 0.00085
refractive index (298.15 K, x1 = 0.8279): 1.47368 ± 0.00089
refractive index (298.15 K, x1 = 0.8996): 1.47898 ± 0.00096
refractive index (303.15 K, x1 = 0.0258): 1.36748 ± 0.00046
refractive index (303.15 K, x1 = 0.0511): 1.38899 ± 0.00047
refractive index (303.15 K, x1 = 0.074): 1.40897 ± 0.00039
refractive index (303.15 K, x1 = 0.1027): 1.41749 ± 0.00035
refractive index (303.15 K, x1 = 0.1965): 1.43645 ± 0.00039
refractive index (303.15 K, x1 = 0.2957): 1.44934 ± 0.00045
refractive index (303.15 K, x1 = 0.416): 1.45817 ± 0.00054
refractive index (303.15 K, x1 = 0.5184): 1.46656 ± 0.00062
refractive index (303.15 K, x1 = 0.5347): 1.46709 ± 0.00063
refractive index (303.15 K, x1 = 0.6044): 1.46754 ± 0.00069
refractive index (303.15 K, x1 = 0.6931): 1.47098 ± 0.00077
refractive index (303.15 K, x1 = 0.7801): 1.47001 ± 0.00085
refractive index (303.15 K, x1 = 0.8279): 1.47226 ± 0.00089
refractive index (303.15 K, x1 = 0.8996): 1.47758 ± 0.00096
refractive index (308.15 K, x1 = 0.0258): 1.36732 ± 0.00046
refractive index (308.15 K, x1 = 0.0511): 1.38799 ± 0.00047
refractive index (308.15 K, x1 = 0.074): 1.4078 ± 0.00039
refractive index (308.15 K, x1 = 0.1027): 1.4163 ± 0.00035
refractive index (308.15 K, x1 = 0.1965): 1.43516 ± 0.00039
refractive index (308.15 K, x1 = 0.2957): 1.448 ± 0.00045
refractive index (308.15 K, x1 = 0.416): 1.45679 ± 0.00054
refractive index (308.15 K, x1 = 0.5184): 1.46532 ± 0.00062
refractive index (308.15 K, x1 = 0.5347): 1.46577 ± 0.00063
refractive index (308.15 K, x1 = 0.6044): 1.4662 ± 0.00069
refractive index (308.15 K, x1 = 0.6931): 1.46966 ± 0.00077
refractive index (308.15 K, x1 = 0.7801): 1.46842 ± 0.00085
refractive index (308.15 K, x1 = 0.8279): 1.47073 ± 0.00089
refractive index (308.15 K, x1 = 0.8996): 1.47607 ± 0.00096
refractive index (313.15 K, x1 = 0.0258): 1.36664 ± 0.00045
refractive index (313.15 K, x1 = 0.0511): 1.38719 ± 0.00046
refractive index (313.15 K, x1 = 0.074): 1.40673 ± 0.00039
refractive index (313.15 K, x1 = 0.1027): 1.4151 ± 0.00035
refractive index (313.15 K, x1 = 0.1965): 1.43386 ± 0.00039
refractive index (313.15 K, x1 = 0.2957): 1.44669 ± 0.00045
refractive index (313.15 K, x1 = 0.416): 1.45543 ± 0.00054
refractive index (313.15 K, x1 = 0.5184): 1.46399 ± 0.00062
refractive index (313.15 K, x1 = 0.5347): 1.46444 ± 0.00063
refractive index (313.15 K, x1 = 0.6044): 1.46489 ± 0.00069
refractive index (313.15 K, x1 = 0.6931): 1.46835 ± 0.00077
refractive index (313.15 K, x1 = 0.7801): 1.46703 ± 0.00085
refractive index (313.15 K, x1 = 0.8279): 1.46931 ± 0.00089
refractive index (313.15 K, x1 = 0.8996): 1.47467 ± 0.00096
refractive index (318.15 K, x1 = 0.0258): 1.36649 ± 0.00045
refractive index (318.15 K, x1 = 0.0511): 1.38658 ± 0.00046
refractive index (318.15 K, x1 = 0.074): 1.40601 ± 0.00039
refractive index (318.15 K, x1 = 0.1027): 1.41389 ± 0.00035
refractive index (318.15 K, x1 = 0.1965): 1.43253 ± 0.00039
refractive index (318.15 K, x1 = 0.2957): 1.44535 ± 0.00045
refractive index (318.15 K, x1 = 0.416): 1.45415 ± 0.00054
refractive index (318.15 K, x1 = 0.5184): 1.46255 ± 0.00062
refractive index (318.15 K, x1 = 0.5347): 1.46311 ± 0.00064
refractive index (318.15 K, x1 = 0.6044): 1.46346 ± 0.00069
refractive index (318.15 K, x1 = 0.6931): 1.46704 ± 0.00077
refractive index (318.15 K, x1 = 0.7801): 1.46554 ± 0.00085
refractive index (318.15 K, x1 = 0.8279): 1.46789 ± 0.00089
refractive index (318.15 K, x1 = 0.8996): 1.47331 ± 0.00096
refractive index (323.15 K, x1 = 0.0258): 1.36665 ± 0.00046
refractive index (323.15 K, x1 = 0.0511): 1.38756 ± 0.00046
refractive index (323.15 K, x1 = 0.074): 1.40547 ± 0.00039
refractive index (323.15 K, x1 = 0.1027): 1.41332 ± 0.00035
refractive index (323.15 K, x1 = 0.1965): 1.43117 ± 0.00039
refractive index (323.15 K, x1 = 0.2957): 1.44401 ± 0.00045
refractive index (323.15 K, x1 = 0.416): 1.45266 ± 0.00054
refractive index (323.15 K, x1 = 0.5184): 1.46151 ± 0.00062
refractive index (323.15 K, x1 = 0.5347): 1.4618 ± 0.00063
refractive index (323.15 K, x1 = 0.6044): 1.46206 ± 0.00069
refractive index (323.15 K, x1 = 0.6931): 1.46574 ± 0.00077
refractive index (323.15 K, x1 = 0.7801): 1.46388 ± 0.00085
refractive index (323.15 K, x1 = 0.8279): 1.46631 ± 0.00089
refractive index (323.15 K, x1 = 0.8996): 1.47199 ± 0.00096
